{"source": "patent US10709699B2", "about": "“Pyridone derivative pharmaceutical composition and preparation method thereof” (Jiangsu Hengrui Medicine Co., Ltd., priority 2016, dated 2020)", "key": {"[1]": {"experiment": "Particle size of the raw material by Malvern laser particle size analyzer (Mastersizer 2000)", "assay_type": "physicochemical", "settings": "for Particle size d (0.5) of the raw material / Particle size d (0.9) of the raw material: in µm (unit assumed)", "method": "2-((2-Fluoro-4-iodophenyl)amino)-1-methyl-4-((6-methylpyridin-3-yl)oxy)-6-oxo-1,6-dihydropyridine-3-carboxamide p-toluenesulfonate (hereinafter referred to as compound A) was screened by an 80 mesh sieve, and micronized by a Mcone jet mill (micronizing pressure: 4 bar, sample introduction pressure: 6 bar), respectively. The particle size was measured directly with a Malvern laser particle size analyzer (Mastersizer 2000)."}, "Solubility": {"experiment": "Solubility", "assay_type": "physicochemical", "settings": "compound A and its salts"}, "[2]": {"settings": "raw material micronized by a jet mill (4 bar)"}, "[3]": {"settings": "raw material screened by an 80 mesh sieve"}}, "data": [{"smiles": "Cc1ccc(Oc2cc(=O)n(C)c(Nc3ccc(I)cc3F)c2C(N)=O)cn1.Cc1ccc(S(=O)(=O)O)cc1", "note": "[compound A, 2-((2-fluoro-4-iodophenyl)amino)-1-methyl-4-((6-methylpyridin-3-yl)oxy)-6-oxo-1,6-di hydropyridine-3-carboxamide p-toluenesulfonate]", "values": [{"measurement": "particle size of the raw material", "setting": "[1]; raw material micronized by a jet mill", "result": "less than 10 μm"}, {"measurement": "Particle size d (0.5) of the raw material", "setting": "[1]; [2]", "result": 2.587}, {"measurement": "Particle size d (0.9) of the raw material", "setting": "[1]; [2]", "result": 5.494}, {"measurement": "Particle size d (0.5) of the raw material", "setting": "[1]; [3]", "result": 4.940}, {"measurement": "Particle size d (0.9) of the raw material", "setting": "[1]; [3]", "result": 14.148}, {"measurement": "solubility", "setting": "Solubility", "result": "low"}]}]}
